Data published in US11596639B2, “Substituted indole Mcl-1 inhibitors” (Vanderbilt University, priority 2016, dated 2023).
pKi: −log10 of the molar value.

Target: Mcl-1 (Homo sapiens (Human), UniProt Q07820)
Assay: Fluorescence polarization anisotropy (FPA) competition assay, FITC-Bak or FITC-Bim BH3 peptide
Format: binding
Settings: read-out: Ki for Inhibition of Mcl-1 by FPA assay

Chain of Mcl-1 (Q07820 172-327): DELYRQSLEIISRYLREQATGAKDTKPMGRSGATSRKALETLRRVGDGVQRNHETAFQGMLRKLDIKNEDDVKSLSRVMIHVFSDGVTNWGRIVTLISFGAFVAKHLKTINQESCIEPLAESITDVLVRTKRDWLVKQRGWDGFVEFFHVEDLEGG

| SMILES | pKi |
| --- | --- |
| Cc1cc(OCCCc2c3n(c4c(-c5c(C)nn(C)c5C)c(Cl)ccc24)[C@H](C)CN(c2ccc4nc(C(=O)O)cn4c2)C3=O)cc(C)c1Cl [Example 139, (R)-6-(7-chloro-10-(3-(4-chloro-3,5-dimethylphenoxy)propyl)-4-methyl-1-oxo-6-(1,3,5-trimethyl-1H-pyrazol-4-yl)-3,4-dihydropyrazino[1,2-a]indol-2(1H)-yl)imidazo[1,2-a]pyridine-2-carboxylic acid] | 8.96 |
| Cc1cc(OCCCc2c3n(c4c(-c5c(C)nn(C)c5C)c(Cl)ccc24)CCCN(Cc2cc(C(=O)O)cc(N4CCN(S(=O)(=O)CCc5ccccc5)CC4)n2)C3=O)cc(C)c1Cl [Example 38, 2-((8-Chloro-11-(3-(4-chloro-3,5-dimethylphenoxy)propyl)-1-oxo-7-(1,3,5-trimethyl-1H-pyrazol-4-yl)-4,5-dihydro-1H-[1,4]diazepino[1,2-a]indol-2(3H)-yl)methyl)-6-(4-(phenethylsulfonyl)piperazin-1-yl)isonicotinic acid] | 7.21 |
| Cc1cc(OCCCc2c3n(c4c(-c5c(C)nn(C)c5C)c(Cl)ccc24)[C@H](C)CN(c2ccc(F)c4cc[nH]c24)C3=O)cc(C)c1Cl [Example 446, (R)-7-Chloro-10-(3-(4-chloro-3,5-dimethylphenoxy)propyl)-2-(4-fluoro-1H-indol-7-yl)-4-methyl-6-(1,3,5-trimethyl-1H-pyrazol-4-yl)-3,4-dihydropyrazino[1,2-a]indol-1(2H)-one] | 8.09 |
| COC(=O)c1cn(C)c2c(N3C[C@@H](C)n4c(c(CCCOc5cc(C)c(Cl)c(C)c5)c5ccc(Cl)c(-c6c(C)nn(C)c6C)c54)C3=O)cccc12 [Example 205, Methyl (R)-7-(7-chloro-10-(3-(4-chloro-3,5-dimethylphenoxy)propyl)-4-methyl-1-oxo-6-(1,3,5-trimethyl-1H-pyrazol-4-yl)-3,4-dihydropyrazino[1,2-a]indol-2(1H)-yl)-1-methyl-1H-indole-3-carboxylate] | 8.62 |
| Cc1cc(OCCCc2c3n(c4c(-c5c(C)nn(C)c5C)c(Cl)ccc24)CCCN(Cc2cc(C(=O)O)cc(N4CCN(C(=O)N(C)C)CC4)n2)C3=O)cc(C)c1Cl [Example 34, 2-((8-Chloro-11-(3-(4-chloro-3,5-dimethylphenoxy)propyl)-1-oxo-7-(1,3,5-trimethyl-1H-pyrazol-4-yl)-4,5-dihydro-1H-[1,4]diazepino[1,2-a]indol-2(3H)-yl)methyl)-6-(4-(dimethylcarbamoyl)piperazin-1-yl)isonicotinic acid] | 7.92 |
| COc1ccc(N2C[C@@H](C)n3c(c(CCCOc4cc(C)c(Cl)c(C)c4)c4ccc(Cl)c(-c5c(C)nn(C)c5C)c43)C2=O)c2c1c(C)c(C(N)=O)n2C [Example 411, (R)-7-(7-Chloro-10-(3-(4-chloro-3,5-dimethylphenoxy)propyl)-4-methyl-1-oxo-6-(1,3,5-trimethyl-1H-pyrazol-4-yl)-3,4-dihydropyrazino[1,2-a]indol-2(1H)-yl)-4-methoxy-1,3-dimethyl-1H-indole-2-carboxamide] | 8.25 |
| Cc1cc(OCCCc2c3n(c4c(-c5c(C)nn(C)c5C)c(Cl)ccc24)[C@H](C)CN(c2cn(C)c4ccc(-c5nnc(-c6ccccc6)o5)cc24)C3=O)cc(C)c1Cl [Example 421, (R)-7-chloro-10-(3-(4-chloro-3,5-dimethylphenoxy)propyl)-4-methyl-2-(1-methyl-5-(5-phenyl-1,3,4-oxadiazol-2-yl)-1H-indol-3-yl)-6-(1,3,5-trimethyl-1H-pyrazol-4-yl)-3,4-dihydropyrazino[1,2-a]indol-1(2H)-one] | 8.47 |
| Cc1cc(OCCCc2c(C(=O)N3CCN(c4cncc(C(=O)O)c4)CC3)n(Cc3cccnc3)c3c(-c4c(C)nn(C)c4C)c(Cl)ccc23)cc(C)c1Cl [Example 734, 5-(4-(6-chloro-3-(3-(4-chloro-3,5-dimethylphenoxy)propyl)-1-(pyridin-3-ylmethyl)-7-(1,3,5-trimethyl-1H-pyrazol-4-yl)-1H-indole-2-carbonyl)piperazin-1-yl)nicotinic acid] | < 6.70 |
| CCn1ncc2c(C(=O)O)cc(N3C[C@@H](C)n4c(c(CCCOc5cc(C)c(Cl)c(C)c5)c5ccc(Cl)c(-c6c(C)nn(C)c6C)c54)C3=O)cc21 [Example 87, (R)-6-(7-chloro-10-(3-(4-chloro-3,5-dimethylphenoxy)propyl)-4-methyl-1-oxo-6-(1,3,5-trimethyl-1H-pyrazol-4-yl)-3,4-dihydropyrazino[1,2-a]indol-2(1H)-yl)-1-ethyl-1H-indazole-4-carboxylic acid] | > 9.00 |
| Cc1cc(CCCCc2c(C(=O)N3CCN(c4ccnc(C(=O)O)c4)CC3)[nH]c3c(-c4c(C)nn(C)c4C)c(Cl)ccc23)cc(C)c1Cl [Example 738, 4-(4-(6-Chloro-3-(4-(4-chloro-3,5-dimethylphenyl)butyl)-7-(1,3,5-trimethyl-1H-pyrazol-4-yl)-1H-indole-2-carbonyl)piperazin-1-yl)picolinic acid] | 6.70 |
| Cc1cc(OCCCc2c(C(=O)NC3CCC(C(=O)O)CC3)[nH]c3c(-c4c(C)ncnc4C)c(Cl)ccc23)cc(C)c1Cl (single isomer, unassigned) [Example 747, 4-(6-Chloro-3-(3-(4-chloro-3,5-dimethylphenoxy)propyl)-7-(4,6-dimethylpyrimidin-5-yl)-1H-indole-2-carboxamido)cyclohexane-1-carboxylic acid] | 7.80 |
| Cc1cc(OCCCc2c(C(=O)NCc3cccc(C(=O)O)c3)[nH]c3c(-c4c(C)ncnc4C)c(Cl)ccc23)cc(C)c1Cl [Example 748, 3-[[[6-Chloro-3-[3-(4-chloro-3,5-dimethyl-phenoxy)propyl]-7-(4,6-dimethylpyrimidin-5-yl)-1H-indole-2-carbonyl]amino]methyl]benzoic acid] | 8.20 |
| Cc1cc(OCCCc2c3n(c4c(-c5c(C)nn(C)c5C)c(Cl)ccc24)[C@H](C)CN(c2cc(O)cc4c2cc(C(=O)O)n4C)C3=O)cc(C)c1Cl [Example 303, (P, R)-4-(7-chloro-10-(3-(4-chloro-3,5-dimethylphenoxy)propyl)-4-methyl-1-oxo-6-(1,3,5-trimethyl-1H-pyrazol-4-yl)-3,4-dihydropyrazino[1,2-a]indol-2(1H)-yl)-6-hydroxy-1-methyl-1H-indole-2-carboxylic acid] | > 9.00 |
| Cc1cc(CCCCc2c(C(=O)N3CCN(c4cc(C(=O)O)ccn4)CC3)n(Cc3cccnc3)c3c(-c4c(C)nn(C)c4C)c(Cl)ccc23)cc(C)c1Cl [Example 741, 2-(4-(6-Chloro-3-(4-(4-chloro-3,5-dimethylphenyl)butyl)-1-(pyridin-3-ylmethyl)-7-(1,3,5-trimethyl-1H-pyrazol-4-yl)-1H-indole-2-carbonyl)piperazin-1-yl)isonicotinic acid] | < 6.70 |
| Cc1cc(OCCCc2c3n(c4c(-c5c(C)nn(C)c5C)c(Cl)ccc24)[C@H](C)CN(c2cccc4c2cc(C(N)=O)n4C)C3=O)cc(C)c1Cl [Example 266, 4-[(4R)-7-chloro-10-[3-(4-chloro-3,5-dimethyl-phenoxy)propyl]-4-methyl-1-oxo-6-(1,3,5-trimethylpyrazol-4-yl)-3,4-dihydropyrazino[1,2-a]indol-2-yl]-1-methyl-indole-2-carboxamide] | 8.04 |
